According to patent US6566081B1, “Methods of identifying a compound which modulates the non-transcriptional non-map-kinase induced effects of steroid hormones” (The Brigham and Women's Hospital, Inc., priority 1999, dated 2003):
“Also recorded” adds a separate entry of the source.

Assays:
[1] = system: eNOS; assay: eNOS activity assay (conversion of [3H]-arginine to [3H]-citrulline) in treated human endothelial cells; assay type: cell-based; settings: E2 10 nM, wortmannin 30 nM, genistein 50 μM, PD98059 5 μM; for effect on E2-stimulated eNOS activity, later phase (≥15 min) or 30 min: ICI 10 μM, actinomycin D 2 h pretreatment
Protocol: Fetal bovine serum was deprived of estrogen by charcoal-stripping. Once grown to confluence the cells were replated on 1.5% gelatin-coated flasks at 20000 cells/cm^2. […] Cell number was assessed by direct cell counting of adherent cells, after trypsin detachment, in a Neubauer hemocytometer (VWR Scientifics). The percentage of cells excluding Trypan Blue after staining with the compound was taken as a measure of cell viability.
Endothelial cells were grown to confluence on 55 cm^2 culture dishes, treated according to the indicated conditions, and harvested in ice-cold PBS containing 1 mM EDTA. The cell lysates were pelleted in a microfuge (2 minutes, 13000 rpm, 4° C.) and subsequently homogenized in a buffer containing 25 mM Tris-HCl, pH 7.4, 1 mM EDTA, 1 mM EGTA. eNOS activity was determined by measuring the conversion of [^3H]-arginine to [^3H]-citrulline. Rat cerebellum extracts, containing elevated amounts of neuronal NOS, were used as positive controls, while endothelial cell extracts incubated in the presence of the competitive eNOS inhibitor L-NAME (1 mM) served as negative controls.
Human and bovine aortic endothelial cells were harvested enzymatically with Type IA collagenase (1 mg/mL).

[2] = system: PI3-kinase; assay: PI3-kinase assay on p85 immunoprecipitates of endothelial cell lysates; assay type: cell-based, human; settings: E2 10 nM 20 min; ICI 10 μM, wortmannin 30 nM
Protocol: PI3kinase activity in endothelial cell lysates was assayed using the borate thin layer chromatography method, as described.^34 Following a 6 h incubation in serum- and estrogen-deficient medium 199, endothelial cells were treated according to the indicated conditions, washed, and harvested in ice-cold lysis buffer (137 mM NaCl, 20 mM Tris-HCl, pH 7.4, 1 mM CaCl2, 1 mM Mg Cl2, 0.1 mM Na3VO4, 1% NP-40). After pelleting the cell debris, the supernatant was incubated for 1 hour at 4° C. with 5 μL of a rabbit antiserum directed against the p85 regulatory subunit of the PI3-kinase (Upstate Biotechnology, Lake Placid, N.Y.), and immunoprecipitated with the addition of 50 μL of a 1:1 slurry of protein A-agarose for 1 hour at 4° C. Following centrifugation, the immunoprecipitates were washed three times with lysis buffer, three times with 0.1 M Tris-HCl, pH 7.4, 5 mM LiCl, 0.1 mM Na3VO4, followed by two washes with 10 mM Tris-HCl, pH 7.4, 150 mM NaCl, 5 mM EDTA, 0.1 mM Na3VO4.
The immunoprecipitates were then mixed with 50 μL Tris-HCl, pH 7.4, 150 mM NaCl, 5 mM EDTA, 20 μg of phosphatidylinositol (Sigma, Saint Louis, Mo.), 10 μL 100 mM MgCl2 and 5 μL of a 0.88 mM ATP, 20 mM MgCl2 solution, containing 30 μCi of [γ-^32P]ATP (3000 Ci/mmol; NEN Life Science Products, Boston, Mass.). […] The phospholipids were extracted with 160 μL of chloroform/methanol (1:1, v/v). 50 μL of the organic phase, containing the labeled PI3-kinase products were separated by borate thin layer chromatography on glass-backed Silica Gel 60 plates (EM Separations, Gibbstown, N.J.) pretreated with a solution containing 25 mM trans-1,2-diaminocyclohexane-N,N,N′N′-tetraacetic acid (CDTA, Sigma, Saint Louis, Mo.), 66% (v/v) ethanol and 0.06 N NaOH, dried for 1 hour and then baked at 100° C. for 15 minutes. The chromatography was developed with a solution containing 37.5% (v/v) methanol, 30% (v/v) chloroform, 22.5% (v/v) pyridine (Sigma, Saint Louis, Mo.), 1.33% (v/v) formic acid, […] boric acid and 8.5 mM butylated hydroxytoluene (Sigma, Saint Louis, Mo.), briefly dried and exposed to autoradiography.

[3] = target: T1, ER-α / PI3-kinase p85α (Homo sapiens, UniProt P03372); assay: ER-α immunoprecipitation: co-precipitated p85α and associated PI3-kinase activity; assay type: cell-based; settings: ICI 10 μM, wortmannin, tamoxifen 1 μM, PD 98059 5 μM, actinomycin D 5 μM
T1 construct: endogenous in cells; host or cells: human endothelial cells (HSVEC), anti-ERα immunoprecipitate
T1 sequence (P03372 1-595): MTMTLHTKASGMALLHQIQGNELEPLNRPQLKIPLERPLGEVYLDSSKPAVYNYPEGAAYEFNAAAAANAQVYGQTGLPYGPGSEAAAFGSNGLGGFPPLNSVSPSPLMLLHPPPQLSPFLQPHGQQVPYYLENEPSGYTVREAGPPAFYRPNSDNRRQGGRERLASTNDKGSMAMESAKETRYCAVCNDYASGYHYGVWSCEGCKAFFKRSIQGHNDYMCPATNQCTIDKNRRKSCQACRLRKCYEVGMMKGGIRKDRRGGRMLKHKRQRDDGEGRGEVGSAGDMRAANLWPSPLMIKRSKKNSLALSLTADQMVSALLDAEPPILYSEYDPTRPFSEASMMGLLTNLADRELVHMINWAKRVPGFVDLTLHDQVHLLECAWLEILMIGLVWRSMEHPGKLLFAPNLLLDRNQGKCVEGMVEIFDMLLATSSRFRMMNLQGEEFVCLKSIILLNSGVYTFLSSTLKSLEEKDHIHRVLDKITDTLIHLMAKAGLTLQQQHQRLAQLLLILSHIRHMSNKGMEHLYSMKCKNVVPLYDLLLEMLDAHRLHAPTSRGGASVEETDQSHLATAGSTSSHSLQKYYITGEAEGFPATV

[4] = system: ERK 1 and 2; assay: Immunoblotting of ERK 1/2 phosphorylation; assay type: cell-based, human; settings: E2 10 nM, PD 98059 5 μM
Protocol: After the different treatments, serum-starved endothelial cells were rinsed once with ice-cold PBS before addition of the lysis buffer (100 mM Tris-HCl, pH 6.8, 4% SDS, 20% glycerol, 1 mM sodium orthovanadate, 1 mM NaF, and 1 mM phenylmethylsulfonylfluoride) to the dishes on an ice tray. The cell lysates were scraped, boiled, and centrifuged for 2 min at 13000 rpm. Total cell lysates (40 μg of protein) and low range molecular weight markers (BIO-RAD, Hercules, Calif.) were separated by SDS-polyacrylamide gel electrophoresis (12% running, 4% stacking), electrophoretically transferred to polyvinylidene fluoride membranes (Immobilon P, 0.45 μm pore size) and incubated overnight at 4° C. with blocking solution (5% skim milk in TBS—0.1% Tween 20). Affinity-purified rabbit antibodies (0.4 μg of IgG/ml) vs. Akt, (Ser 473) phospho-Akt or (Thr 308) phospho-Akt (New England BioLabs, Beverly, Mass.), Erk1/2, (Tyr 204) phospho-Erk-1/-2 (Calbiochem, San Diego, Calif.) were incubated with the membranes overnight at 4° C. in TBS—0.1% Tween 20 containing 5% BSA. The blots were washed three times with TBS—0.1% Tween 20 and then treated with donkey anti-rabbit antibody (1:4000 dilution) coupled to horseradish peroxidase. Immunodetection was accomplished using the enhanced chemoluminescence kit (ECL Kit, Amersham Corp.).

[5] = target: T2, ERα-p85α interaction (Homo sapiens, UniProt P03372); assay: GST fusion protein-affinity purification (GST-p85α and recombinant ERα, cell-free); assay type: binding; settings: recombinant ERα, Hsp90 0.5 μg
T2 construct: purchased Panvera (ERα)
Protocol: Human recombinant GST-p85α fusion protein or GST (Sigma, St. Louis, Mo.) bound to glutathione-agarose beads (1 μg protein/20 μL beads) were suspended in 400 μL of E. Coli protein extract solution (10 mg/mL) and incubated with 1 μg human recombinant ERα (Panvera, Madison, Wis.) for 1 h at 4° C. The samples were pelleted, and the beads were washed 5 times with a buffer containing 50 mM potassium phosphate, pH 7.5, 150 mM KCl, 1 mM MgCl2, 10% (v/v) glycerol, 1% (v/v) Triton X-100 plus protease inhibitors. The beads were re-suspended in 50 μL of 2×Laemmli's buffer and boiled for 5 min. Proteins were separated on SDS-polyacrylamide gel electrophoresis.

[6] = system: mouse cremaster muscle venules; assay: Model of vascular injury: ischemia and reperfusion in the mouse cremaster muscle (leukocyte rolling and adhesion); assay type: in vivo; settings: wortmannin 100 nM or L-NAME 0.1 mM during ischemia
Protocol: (§1) Mice were anesthetized and the cremaster muscle was studied under intravital microscopy^28. Ischemia was induced by applying pressure to supplying arteries just sufficient to stop blood flow for 30 min. In some experiments, wortmannin (100 nM) or L-NAME (0.1 mM) was applied to the cremaster muscle during the ischemic period. The pressure was released for reperfusion, and the same vessels were recorded in each animal before and after I/R. The rolling velocities of 25 leukocytes were measured in each venule; sorted and averaged for each rank to construct cumulative histograms. The velocities of 3,750 leukocytes were measured in 150 venules before and after I/R. The number of firmly adherent leukocytes was measured before and after I/R in the same 200 μm long segments of venules.

[7] = target: T3, eNOS (Mus musculus, UniProt P70313); assay: Cremaster eNOS activity in mice; assay type: in vivo; settings: L-NAME 0.1 mM, E2-treated mice
T3 construct: from tissue; host or cells: cremaster muscle of male C57BL/6 mice
Protocol: as §1, with “venules. The following number of venules were studies for leukocyte adhesion: Untreated, 15 venules; E2-treated, 20 venules; E2-treated with wortmannin, 25 venules; E2-treated with L-NAME, 15 venules. Cremaster eNOS activity was measured in 3 untreated, 4 E2-treated, 5 E2-treated with wortmannin, and 4 E2-treated with L-NAME mice.” for “venules.”

T2 sequence (P27986 whole entry partner, one chain of several, the tested form may be a part): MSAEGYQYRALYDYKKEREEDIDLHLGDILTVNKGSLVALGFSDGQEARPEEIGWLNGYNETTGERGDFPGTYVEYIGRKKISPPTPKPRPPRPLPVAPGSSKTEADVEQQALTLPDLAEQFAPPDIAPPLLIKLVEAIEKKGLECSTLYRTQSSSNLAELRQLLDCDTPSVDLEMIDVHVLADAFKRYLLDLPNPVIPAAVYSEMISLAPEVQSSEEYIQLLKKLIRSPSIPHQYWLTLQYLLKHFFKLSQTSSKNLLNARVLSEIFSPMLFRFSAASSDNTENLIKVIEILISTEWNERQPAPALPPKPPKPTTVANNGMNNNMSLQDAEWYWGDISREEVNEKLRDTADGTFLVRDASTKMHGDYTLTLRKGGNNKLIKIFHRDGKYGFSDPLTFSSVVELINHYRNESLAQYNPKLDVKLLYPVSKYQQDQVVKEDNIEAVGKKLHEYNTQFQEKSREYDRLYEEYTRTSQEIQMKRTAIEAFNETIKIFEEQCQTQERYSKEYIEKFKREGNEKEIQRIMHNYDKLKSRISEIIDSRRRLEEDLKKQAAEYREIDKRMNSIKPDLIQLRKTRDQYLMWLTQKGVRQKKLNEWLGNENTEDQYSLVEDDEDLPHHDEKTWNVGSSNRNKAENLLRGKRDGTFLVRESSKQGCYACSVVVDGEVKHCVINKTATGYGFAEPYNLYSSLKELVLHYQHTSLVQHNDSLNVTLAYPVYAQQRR
T3 sequence (P70313 2-1202): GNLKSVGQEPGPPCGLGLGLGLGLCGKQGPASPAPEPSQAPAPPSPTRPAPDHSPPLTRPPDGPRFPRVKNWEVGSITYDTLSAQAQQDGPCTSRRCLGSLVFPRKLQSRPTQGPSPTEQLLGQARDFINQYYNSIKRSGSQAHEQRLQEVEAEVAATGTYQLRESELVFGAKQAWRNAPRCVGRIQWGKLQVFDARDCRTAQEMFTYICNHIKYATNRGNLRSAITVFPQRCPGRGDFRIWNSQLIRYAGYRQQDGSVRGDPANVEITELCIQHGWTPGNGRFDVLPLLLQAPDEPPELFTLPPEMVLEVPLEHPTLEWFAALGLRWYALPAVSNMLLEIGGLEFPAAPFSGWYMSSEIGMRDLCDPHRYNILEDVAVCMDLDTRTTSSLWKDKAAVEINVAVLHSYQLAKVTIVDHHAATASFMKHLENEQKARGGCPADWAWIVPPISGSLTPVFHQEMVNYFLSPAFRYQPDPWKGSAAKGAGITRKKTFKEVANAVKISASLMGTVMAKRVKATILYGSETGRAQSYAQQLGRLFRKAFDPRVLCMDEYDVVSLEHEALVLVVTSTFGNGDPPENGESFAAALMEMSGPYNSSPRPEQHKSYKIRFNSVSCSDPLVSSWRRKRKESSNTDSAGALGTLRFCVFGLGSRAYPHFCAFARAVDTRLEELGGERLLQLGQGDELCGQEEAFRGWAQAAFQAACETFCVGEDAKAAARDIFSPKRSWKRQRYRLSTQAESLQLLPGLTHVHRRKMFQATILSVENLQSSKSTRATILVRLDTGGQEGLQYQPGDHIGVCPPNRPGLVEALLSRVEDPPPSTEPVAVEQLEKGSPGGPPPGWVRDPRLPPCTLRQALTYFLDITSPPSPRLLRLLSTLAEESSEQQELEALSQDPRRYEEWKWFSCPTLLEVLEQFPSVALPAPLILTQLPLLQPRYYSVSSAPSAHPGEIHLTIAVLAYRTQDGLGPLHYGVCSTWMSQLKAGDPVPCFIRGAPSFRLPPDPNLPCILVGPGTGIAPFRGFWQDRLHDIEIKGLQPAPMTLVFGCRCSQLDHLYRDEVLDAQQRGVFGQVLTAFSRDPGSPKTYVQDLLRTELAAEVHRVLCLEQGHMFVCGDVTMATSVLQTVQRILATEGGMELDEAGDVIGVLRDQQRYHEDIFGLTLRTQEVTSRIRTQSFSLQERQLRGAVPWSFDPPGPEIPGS

COc1cccc(-c2cc(=O)c3ccccc3o2)c1N [PD98059]
effect on E2-stimulated eNOS activity, later phase (≥15 min) or 30 min [1]: only minimally affected; also recorded: not the later phase; also recorded: little or no inhibitory effect | effect on E2-stimulated eNOS activity, later phase (≥15 min) or 30 min ([1]; listed as PD 98059): do not block | effect on E2-stimulated eNOS activity, initial phase (first 5-10 min) [1]: able to block; also recorded: significantly blocked | effect on E2-stimulated eNOS activity, initial phase (first 5-10 min) ([1]; listed as PD 98059): blunt | effect on E2-induced PI3-kinase activation [2]: only minimally affected | effect on E2-stimulated ER-α-associated PI3-kinase activity [3]: not | effect on E2-stimulated ERK-1 and -2 phosphorylation [4]: inhibited | effect on E2-stimulated ERK-1 and -2 phosphorylation ([4]; listed as PD 98059): abolished

Heat shock protein 90: heat shock protein that binds and facilitates the function of ER and eNOS
effect on interaction of ERα and p85α [5]: inhibited | effect on interaction of ERα and p85α ([5]; listed as Hsp90): inhibits

COC(=O)[C@@H](N)CCCNC(=N)N[N+](=O)[O-] [L-NAME, L-nitroarginine methylester]
leukocyte rolling velocity and accumulation, untreated vs E2-treated mice following I/R, with inhibitor applied to the cremaster muscle [6]: not different | effect of applied inhibitor on cremaster eNOS activity [7]: decreased eNOS activity below that of untreated mice
